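Five compound concentrations were applied to cells in 96-well plates for 48 hours; endpoints were derived by simple linear interpolation of the resulting dose-response curve. The concentration for 50% growth inhibition is given as GI50.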 Activity calls are given as the source filed them. Cut-off read from the data, not from the text of the source: active = GI50 up to about 1.1 µM and inactive = higher.

Experiment in all cases: inhibition of tumour cell growth, NCI panel, 48 h
Test [1] concerns SK-MEL-28.
Test [2] relates to A498.
In test [3] the test system is TK-10.
Test [4] concerns OVCAR-3.
Test [5] concerns U-251.
Test [6] deals with COLO 205.
Test [7] deals with MDA-N.
The test system of test [8] is SNB-19.
The test system of test [9] is MCF7.
Test [10] has as its system Malme-3M.
For test [11], the system named is UO-31.
The test system of test [12] is LOX IMVI.
For test [13], the system named is K562.
Test [14] relates to A549.
The test system of test [15] is HL-60.
Test [16] relates to Hs-578T.
In test [17] the test system is SW-620.
Test [18] has as its system UACC-62.
Test [19] deals with IGROV-1.
For test [20], the system named is HCT-15.

In the case of `COc1cc2nncc(SCc3ccc(Cl)c(Cl)c3)c2cc1OC`, the GI50 in test [1] is > 100 µM (inactive); in test [2] it was > 100 µM (inactive); in test [3] it was 82.4 µM (inactive); in test [4], > 100 µM (inactive); in test [5], 50.5 µM (inactive); in test [6], > 100 µM (inactive). Also, the GI50 in test [7] was > 100 µM (inactive); in test [8] it was 45.9 µM (inactive); in test [9], 89.5 µM (inactive); in test [10], > 100 µM (inactive); in test [11], > 100 µM (inactive); in [12], 26.2 µM (inactive). For the same molecule, the GI50 in [13] was > 94.8 µM (inactive); in test [14], > 82.2 µM (inactive); in test [15], > 50.8 µM (inactive); in [16], 80 µM (inactive); in [17] it was > 100 µM (inactive); in [18] it was 14 µM (inactive). The GI50 in [19] was 99.3 µM (inactive); in [20], greater than 31.3 µM.

Turning to `CN(C)CCCNC(=O)c1cn2c(ccc3sc4ccccc4c(=O)c32)n1`, the GI50 in test [1] was 5.46 µM (inactive); in [2], 14.6 µM (inactive); in test [3], 16.5 µM (inactive); in test [4] it was 10.7 µM (inactive); in test [5], 1.63 µM (inactive); in [6], 3.77 µM (inactive). The GI50 in test [7] was 5.09 µM (inactive); in test [8], 15.1 µM (inactive); in test [9], 3.73 µM (inactive); in test [10], 8.99 µM (inactive); in test [11], 10.8 µM (inactive); in test [12], 1.41 µM (inactive). For the same molecule, the GI50 is 1.79 µM (inactive) in test [13]; 9.14 µM (inactive) in test [14]; 3.6 µM (inactive) in test [15]; 15.7 µM (inactive) in test [16]; 1.51 µM (inactive) in [17]; 17.9 µM (inactive) in test [18]. In addition, the results for the GI50 in test [19] and in test [20] were 10.6 µM (inactive) and 2.2 µM, respectively.

As for `COc1c(O)cc2c(c1O)C(=O)/C(=C/c1ccc(O)cc1)CO2`, the GI50 in [1] is 17.7 µM (inactive); in [2], 40 µM (inactive); in test [3], 35.5 µM (inactive); in test [4] it was 27.2 µM (inactive); in [5] it was 33.7 µM (inactive); in test [6], 17.6 µM (inactive). The GI50 was 28.7 µM (inactive) in test [7]; 30.8 µM (inactive) in test [8]; 34.7 µM (inactive) in [9]; 30.2 µM (inactive) in test [10]; 23 µM (inactive) in test [11]; 21.7 µM (inactive) in test [12]. Also, the GI50 in test [13] was 28.9 µM (inactive); in [14], 31 µM (inactive); in test [15] it was 30.1 µM (inactive); in test [16] it was 30.2 µM (inactive); in test [17], 26.7 µM (inactive); in test [18], 19.2 µM (inactive). In addition, the GI50 in [19] was 24.7 µM (inactive); in test [20], 14.8 µM.

On to `COc1cccc(/C=N/NC(=O)CN(C)C)c1O`, for which the GI50 in test [1], in [2], in test [3], in test [4], in test [5] and in test [6] was > 100 µM (inactive) throughout. The GI50 in test [7], in test [8], in test [9], in [10], in test [11] and in test [12] was > 100 µM (inactive) each time. In addition, the GI50 in test [13], in test [14], in test [15], in test [16], in test [17] and in test [18] was > 100 µM (inactive) throughout. For the same molecule, the GI50 in [19] is > 100 µM (inactive); in test [20], greater than 100 µM.

Consider `N[C@@H]1c2c(Br)sc(Br)c2[C@H](O)[C@@H]1O`, for which the GI50 in test [1], in test [2], in test [3], in test [4], in test [5] and in [6] was > 100 µM (inactive) in each case. The GI50 in test [7], in [8], in test [9], in test [10], in test [11] and in [12] was > 100 µM (inactive) in each case. Further, the GI50 in [13], in test [14], in [15], in [16], in test [17] and in test [18] was > 100 µM (inactive) throughout. Also, the GI50 is > 100 µM (inactive) in test [19] and greater than 100 µM in [20].

With `CCOC(=O)c1nc2ccccc2nc1Oc1ccc(OC)cc1`, the GI50 in test [1], in test [2], in test [3], in test [4], in [5] and in test [6] was > 100 µM (inactive) each time. The GI50 in test [7], in [8], in [9], in test [10], in test [11] and in test [12] was > 100 µM (inactive) each time. In addition, the GI50 in test [13], in [14], in [15], in test [16], in test [17] and in test [18] was > 100 µM (inactive) in each case. The GI50 in test [19] is > 100 µM (inactive); in test [20] it was greater than 100 µM.

These data come from ChEMBL document CHEMBL1201862, “PubChem BioAssay data set” (2004).
